In patent US20250042857A1, “SOS1 Inhibitor With Pyrido-Fused Six-Membered Ring Structure” (HAIHE BIOPHARMA CO., LTD., priority 2021, published 2025) one finds IC50 data, which are given here for 35 molecules.

For the test, the target named is KRAS-G12C/SOS1 (Homo sapiens (Human), UniProt Q07889). The test is described as follows: Detection of inhibitory effects of compounds on KRAS-G12C/SOS1 (KRASG12C/SOS binding kit, HTRF). As to conditions: Em665/620, read-out: IC50, inhibitory activity on interaction of KRAS-G12C/SOS1. An excerpt:
Experimental objective: The inhibitory effects of the tested compounds on KRAS-G12C/SOS1 were detected. IC50 was used to characterize the inhibitory ability of the compounds on the KRAS-G12C/SOS1. The lower IC50 value indicated the stronger inhibitory ability. BI-3406 was used as a positive control compound.
Experimental reagents: KRASG12C/SOS binding kit (Cisbio, cat. 63ADK000CB16PEG); DMSO (Sigma, cat. D8418-1L); and 384-well white plate (PerkinElmer, cat. 6007290)
• 1. Preparation of compounds: the test compounds were dissolved in 100% DMSO to obtain 10 mM stock solutions and the stock solutions were stored in a refrigerator in the dark. • 2. Kinase reaction process:
Preparation of compounds: the test compounds had the concentration of 5,000 nM and diluted in a 384-well plate into a 100% DMSO solution at the 200-fold final concentration, and the compounds were diluted 3-fold with 10 concentrations. 50 nL of the compounds at the 200-fold final concentration were transferred to the plate of interest, the 384-well plate, using a dispenser Echo 550. 50 nL of 100% DMSO was added to each negative control well and positive control well.
A Tag1-SOS1 solution at the 4-fold final concentration was prepared using a diluent buffer.
2.5 μL of the Tag1-SOS1 solution at the 4-fold final concentration was added to the 384-well plate.
A Tag2-KRAS-G12C solution at the 4-fold final concentration was prepared using the diluent buffer.
2.5 μL of the Tag2-KRAS-G12C solution at the 4-fold final concentration was respectively added into compound wells and the positive control wells; and 2.5 μL of the diluent buffer was added to the negative control wells.
The 384-well plate was centrifuged at 1,000 rpm for 30 seconds, shaken and mixed uniformly, and incubated at room temperature for 15 minutes.
An Anti-Tag1-TB3+ solution at the 1-fold final concentration and an Anti-Tag2-XL665 solution at the 1-fold final concentration were prepared using a detection buffer, the two solutions were mixed uniformly to obtain a Mix solution, and 5 μL of the Mix solution was added into each well.
The 384-well plate was centrifuged at 1,000 rpm for 30 seconds, shaken and mixed uniformly, and incubated at 4° C. for 120 minutes.
Em665/620 was read using an Envision microplate reader.
Inhibition %=(Max signal−Compound signal)/(Max signal−Min signal)×100 Calculation formula • wherein the Min signal was the mean value of the negative control wells, and the Max signal was the mean value of the positive control wells.
A dose-response curve was fitted using the log value of the concentration as an X axis and the percentage of the inhibitory rate as a Y axis by using the log(inhibitor) vs. response-variable slope of an analytical software GraphPadPrism5, thereby obtaining the IC50 value of each compound on an enzyme activity.

Structures are written as SMILES. Some results are limits rather than exact numbers.

KRAS-G12C/SOS1, sequence (Q07889 whole entry, stated change not applied): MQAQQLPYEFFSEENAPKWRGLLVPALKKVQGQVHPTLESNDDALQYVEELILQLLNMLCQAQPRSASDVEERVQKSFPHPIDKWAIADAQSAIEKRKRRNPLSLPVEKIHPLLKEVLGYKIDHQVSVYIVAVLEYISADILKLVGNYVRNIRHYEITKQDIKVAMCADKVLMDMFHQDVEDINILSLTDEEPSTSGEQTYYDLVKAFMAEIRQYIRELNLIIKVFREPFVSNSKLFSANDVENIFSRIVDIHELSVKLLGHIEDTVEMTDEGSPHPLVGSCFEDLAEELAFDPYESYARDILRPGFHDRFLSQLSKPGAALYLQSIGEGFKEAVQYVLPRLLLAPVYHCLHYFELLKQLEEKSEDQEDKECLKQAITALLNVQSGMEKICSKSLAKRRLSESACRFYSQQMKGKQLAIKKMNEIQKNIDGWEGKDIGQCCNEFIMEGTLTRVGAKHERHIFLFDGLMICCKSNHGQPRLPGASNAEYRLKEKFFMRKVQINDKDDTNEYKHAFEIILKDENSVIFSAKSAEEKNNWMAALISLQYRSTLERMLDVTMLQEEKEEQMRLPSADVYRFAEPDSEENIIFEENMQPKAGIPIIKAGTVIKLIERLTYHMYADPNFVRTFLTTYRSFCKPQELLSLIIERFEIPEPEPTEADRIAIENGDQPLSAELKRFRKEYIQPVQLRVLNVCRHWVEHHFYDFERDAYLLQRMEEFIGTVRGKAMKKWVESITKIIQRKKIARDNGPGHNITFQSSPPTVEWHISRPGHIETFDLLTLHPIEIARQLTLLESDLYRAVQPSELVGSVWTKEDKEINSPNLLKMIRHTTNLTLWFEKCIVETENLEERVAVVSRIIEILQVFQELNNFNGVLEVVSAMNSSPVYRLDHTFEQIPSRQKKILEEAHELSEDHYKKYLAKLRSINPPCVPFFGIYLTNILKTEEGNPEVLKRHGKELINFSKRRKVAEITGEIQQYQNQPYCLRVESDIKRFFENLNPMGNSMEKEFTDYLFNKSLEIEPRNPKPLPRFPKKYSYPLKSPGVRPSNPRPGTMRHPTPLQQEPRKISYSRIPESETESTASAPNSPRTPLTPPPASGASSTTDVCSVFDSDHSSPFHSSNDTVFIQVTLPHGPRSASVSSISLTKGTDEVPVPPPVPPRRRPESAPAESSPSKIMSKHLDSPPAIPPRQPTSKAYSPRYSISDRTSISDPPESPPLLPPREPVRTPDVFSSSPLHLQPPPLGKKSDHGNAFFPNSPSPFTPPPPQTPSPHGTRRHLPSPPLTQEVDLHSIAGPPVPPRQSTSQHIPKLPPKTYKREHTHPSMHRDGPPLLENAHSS

Regarding `COc1cc2nccc(N[C@H](C)c3cccc(C(F)F)c3F)c2cc1OC1CCN(C(C)=O)CC1` [Compound A-18], the IC50 was at most 100 nM.

Regarding `CNC(=O)C1CCN(c2cc3c(N[C@H](C)c4cccc(C(F)F)c4F)ccnc3cn2)C(=O)C1` (some centres unmarked) [Compound B-55], the IC50 was at most 100 nM. On to `COc1cc2c(N[C@H](C)c3cccc(C(F)F)c3F)ccnc2cc1OC1CCN(C(C)=O)CC1` [Compound A-16], for which the IC50 was at most 100 nM. Turning to `C[C@@H](Nc1ccnc2cnc(N3CCC(N(C)C)CC3)cc12)c1cccc(C(F)F)c1F` [Compound B-61], the IC50 is at most 100 nM. Then `C[C@@H](Nc1ccnc2cnc(N3CCC(O)C3=O)cc12)c1cccc(C(F)F)c1F` (some centres unmarked) [Compound B-58], with at most 100 nM; and `COc1cc2nccc(N[C@H](C)c3cccc(C(F)F)c3F)c2cc1C1CCN(C(C)=O)CC1` [Compound A-40], with at most 100 nM; and `Cc1c([C@@H](C)Nc2ccnc3cnc(C4(O)CCC(O)CC4)cc23)cccc1C(F)(F)F` (single isomer, unassigned) [Compound B-84-P2], with 100 to 500 nM. In the case of `Cc1c(C(F)F)cccc1[C@@H](C)Nc1ccnc2cnc(C3(O)CCC(O)CC3)cc12` (single isomer, unassigned) [Compound B-86-P2], the IC50 was in the range of 100 to 500 nM.

With `COc1cc2nccc(N[C@H](C)c3cccc(C(F)F)c3F)c2cc1O[C@H]1CCN(C(C)=O)C1` [Compound A-6], the IC50 was at most 100 nM. Then `COc1cc2nccc(N[C@H](C)c3cccc(C(F)F)c3F)c2cc1OC` [Compound A-1], with at most 100 nM; and `COc1cc2nccc(N[C@H](C)c3cccc(C(F)F)c3F)c2cc1C1(O)CCN(C(C)=O)CC1` [Compound A-58], with at most 100 nM. In the case of `C[C@@H](Nc1ccnc2cnc(C3(O)CCC(N(C)C)CC3)cc12)c1cccc(C(F)F)c1F` (single isomer, unassigned) [Compound B-94-P1], the IC50 is at most 100 nM. Take `Cc1c(C(F)F)cccc1[C@@H](C)Nc1ccnc2cnc(C3(O)CCC(O)CC3)cc12` (single isomer, unassigned) [Compound B-86-P1]: the IC50 was 100 to 500 nM.

For the molecule `Cc1cc(N[C@H](C)c2cccc(C(F)F)c2F)c2cc(C3(O)CCC(O)CC3)ncc2n1` (single isomer, unassigned) [Compound B-88-P1], the IC50 was at most 100 nM. For the molecule `C[C@@H](Nc1ccnc2cnc(C(C)(C)O)cc12)c1cccc(C(F)F)c1F` [Compound B-105], the IC50 is at most 100 nM. Regarding `C[C@@H](Nc1ccnc2cnc(C(C)(O)C3CC3)cc12)c1cccc(C(F)F)c1F` (some centres unmarked) [Compound B-106], the IC50 is at most 100 nM.

Turning to `COc1cc2nccc(N[C@H](C)c3cccc(C(F)F)c3F)c2cc1OC1CCNCC1` [Compound A-17], the IC50 is at most 100 nM. Take `COc1cc2nccc(N[C@H](C)c3cccc(C(F)F)c3F)c2cc1O[C@H]1CCNC1` [Compound A-5]: the IC50 was at most 100 nM. With `C[C@@H](Nc1ccnc2cnc(N3CC(O)CC3=O)cc12)c1cccc(C(F)F)c1F` (some centres unmarked) [Compound B-57] the figure was 100 to 500 nM; with `COc1cc2nccc(N[C@H](C)c3cccc(C(F)F)c3F)c2cc1C1=CCN(C(C)=O)CC1` [Compound A-39], at most 100 nM; with `COc1cc2nc(C)cc(N[C@H](C)c3cccc(C(F)F)c3F)c2cc1OC` [Compound A-2], at most 100 nM. Consider `CC(=O)C1CCN(c2cc3c(N[C@H](C)c4cccc(C(F)F)c4F)ccnc3c(C)n2)CC1` [Compound B-66], for which the IC50 is at most 100 nM. As for `COc1cc2nccc(N[C@H](C)c3cccc(C(F)F)c3F)c2cc1C1=CCS(=O)(=O)CC1` [Compound A-45], the IC50 was at most 100 nM.

In the case of `COc1cc2nccc(N[C@H](C)c3cccc(C(F)F)c3F)c2cc1O[C@H]1CCOC1` [Compound A-3], the IC50 was at most 100 nM. Then `COc1cc2nccc(N[C@H](C)c3cccc(C#N)c3C)c2cc1O[C@H]1CCOC1` [Compound A-4], with 100 to 500 nM. As for `C[C@@H](Nc1ccnc2cnc(N3CCCC3=O)cc12)c1cccc(C(F)F)c1F` [Compound B-59], the IC50 was at most 100 nM. For the molecule `COc1cc2nccc(N[C@H](C)c3cccc(C(F)F)c3F)c2cc1C1CCS(=O)(=O)CC1` [Compound A-46], the IC50 was at most 100 nM.

For `COc1cc2nccc(N[C@H](C)c3cccc(C(F)F)c3F)c2cc1C1CCN(S(C)(=O)=O)CC1` [Compound A-41], the IC50 was at most 100 nM. As to `COc1cc2nccc(N[C@H](C)c3cccc(C(F)F)c3F)c2cc1C1(OC)CCN(C(C)=O)CC1` [Compound A-59], the IC50 was at most 100 nM.

In the case of `Cc1c([C@@H](C)Nc2ccnc3cnc(C4(O)CCC(O)CC4)cc23)cccc1C(F)(F)F` (single isomer, unassigned) [Compound B-84-P1], the IC50 lay in the range of 100 to 500 nM. Then `C[C@@H](Nc1ccnc2cnc(C3(O)CCC(N4CCNCC4)CC3)cc12)c1cccc(C(F)F)c1F` (single isomer, unassigned) [Compound B-97-P1], with at most 100 nM.

As for `C[C@@H](Nc1ccnc2cnc(N3C[C@@H](O)C[C@H]3CO)cc12)c1cccc(C(F)F)c1F` [Compound B-77], the IC50 was at most 100 nM. For the molecule `COc1cc2nccc(N[C@H](C)c3cccc(C(F)F)c3F)c2cc1O[C@@H]1CCN(C(C)=O)C1` [Compound A-7], the IC50 lay in the range of 100 to 500 nM.

Turning to `C[C@@H](Nc1ccnc2cnc(N3CCN(CCO)CC3)cc12)c1cccc(C(F)F)c1F` [Compound B-43], the IC50 is at most 100 nM.

Consider `COC(=O)C1CCC(O)(c2cc3c(N[C@H](C)c4cccc(C(F)F)c4F)ccnc3cn2)CC1` (some centres unmarked) [Compound B-99], for which the IC50 is at most 100 nM.
